Common to all, as to format: in vivo, human
For one series, the system named is CYP3A5. Briefly: Regression of Toxicity Index on CYP3A5 SNP genotype of recipient subjects. The conditions noted are these: for Para. Est., TI5 vs CYP3A5_3A (multivariable): multivariable analysis best model; for Para. Est., TI5 vs CYP3A5_3A (multivariable) / Para. Est., TI5 vs CYP3A5_3A1 / Para. Est., TI5 vs CYP3A5_3A: cycle 5. The text has this:
(§1) The GENOMELAB SNPSTREAM™ (Beckman) was utilized to accommodate up to 92,000 genotypes per day. This automated, multiplexed system can process up to 48 SNPs in each well of an arrayed 384-well plate. The SNPSTREAM™ operates at a consistent cost per genotype or per sample, regardless of run throughput, allowing users to cost-effectively zero in on targets with low-throughput studies as well as conduct high-throughput analyses.
(§2) The SNPSTREAM™ Genotyping System features a protocol with three steps. The technology is based on single-based primer extension technology. The system's high sensitivity delivers results using as little as 2 ng of genomic DNA. SNPWARE™ reagent kits were used. The kits included ready-to-use reagents, all performed in the original PCR plate according to the manufacturer's instructions, and incorporated herein by reference in its entirety.
(§3) Multiplexed reactions were spatially resolved on a SNPWARE™ Tag Array plate. Each of the 384 wells in a plate contained 16 or 52 unique oligonucleotides of a known sequence, or tag. Each tag on the plate was complementary to one of the tags of the 12 or 48 extension primers, plus four controls to ensure accuracy. After transfer to the Tag Array plate, each SNP was hybridized to its complementary tag. SNPs were then identified by their position in the well.
(§4) The process involved a multiplex PCR followed by an annealing reaction of the oligonucleotide to the specific PCR product. Next the oligonucleotide was extended by a single base which was fluorescently labeled with a terminating NTP and finally detected by two-colored fluorescence specific for the allele.
(§5) For each SNP, the -PCRU and -PCRL primers were first used to amplify a relevant DNA fragment surrounding the target SNP site. The components per reaction were: H2O, 3.0 μl; 10× PCR Buffer II, 0.5 μl; MgCl2 (25 mM), 1.0 μl; dNTPs (2.5 mM each), 0.18 μl; PCR Primer Pool (2.5 μM each), 0.1 μl; AMPLITAQ GOLD™ (5 U/μl), 0.125 μl for a total volume of 5.0 μl per reaction.
(§6) Primer -SNPU or SNPL was then used for single-base extension reaction. The thermocycler program was as follows: Step 1: 96° C. for 3 min; Step 2: 94° C. for 20 sec; Step 3: 40° C. for 11 sec; and Step 5: return to step 2 59 times, and finally to hold at 4° C.
(§7) A preliminary data analysis focused on the relationship between the Toxicity Index and the recipient subjects' demographic/genetic information. […] Univariate linear regression analysis was conducted first to find significant covariates in predicting the Toxicity Index in one of five cycles, then multivariable analysis was used to determine the best model in fitting the data. A mixed model for repeated measurement was implemented in modeling Toxicity Index in the first five cycles, and also in all cycles. Autoregressive covariance structure was used in the mixed model. SAS and Minitab were used in the analysis.
(§8) Covariates in the analysis included recoded binary demographic variables (sex, race, site, grade, stage) and recoded binary genetic variables.
(§9) Multivariable regression analysis was used to find the best model in predicting the Toxicity Index in each of the first five cycles.

Series [1] is described as follows: Regression / mixed model of Toxicity Index on demographic variables and received dose. The protocol:
as §7, §8, §9
(§10) A mixed model for repeated measurements was implemented to find the best model in fitting the longitudinal data. Autoregressive covariance structure was used in the mixed model. Toxicity Indexes in the first five cycles were included in the analysis.
(§11) To model Toxicity Indexes in all 21 cycles, a mixed model was used to find the best model. For the paclitaxel, Received dose and MAPT_H14 were significant fixed effects in predicting the longitudinal Toxicity Index in all cycles.

Another series concerns MAPT. Nature of the series: Regression / mixed model of Toxicity Index on MAPT SNP genotype of recipient subjects. The conditions noted are these: for Fixed effect Estimate, COL6_2 (MAPT_H1): TT=1, CC=0.
Description: as §1, §2, §3, §4, §5, §6, §7, §8, §9, §10, §11

For the molecule `CC(=O)O[C@H]1C(=O)[C@@]2(C)[C@H]([C@H](OC(=O)c3ccccc3)[C@]3(O)C[C@H](OC(=O)[C@H](O)[C@@H](NC(=O)c4ccccc4)c4ccccc4)C(C)=C1C3(C)C)[C@]1(OC(C)=O)CO[C@@H]1C[C@@H]2O` [Paclitaxel, (2aR,4S,4aS,6R,9S,11S,12S,12aR,12bS)-1,2a,3,4,4a,6,9,10,11,12,12a,12b-Dodecahydro-4,6,9,11,12,12b-hexahydroxy-4a,8,13,13-tetramethyl-7,11-methano-5H-cyclodeca(3,4)benz(1,2-b)oxet-5-one 6,12b-diacetate, 12-benzoate, 9-ester with (2R,3S)-N-benzoyl-3-phenylisoserine], in the series on CYP3A5 (rs776746, GG = 1, AG = 0, P-value 0.022), the “Para. Est., TI5 vs CYP3A5_3A (multivariable)” value is 1.477. Also, in the series on CYP3A5 (univariate linear regression, rs15524, TT = 1, TC = 0, P-value 0.022), the “Para. Est., TI5 vs CYP3A5_3A1” value came out at 1.477. For the same molecule, the “Para. Est., TI5 vs CYP3A5_3A” value in the series with CYP3A5 (univariate linear regression, rs776746, GG = 1, AG = 0, P-value 0.022) is 1.477. Moreover, the “Fixed effect Estimate, Received Dose2” value in series [1] (mixed model, longitudinal Toxicity Index in all 21 cycles, Pr > |t| 0.0244) was 0.002363. For the same molecule, the “Fixed effect Estimate, COL18_3 (MAPT_H14)” value in the series on MAPT (mixed model for repeated measurements, longitudinal Toxicity Index in first five cycles, Pr > |t| 0.0118) was 0.8918; with MAPT (mixed model, longitudinal Toxicity Index in all 21 cycles, Pr > |t| 0.0114), 0.6989. Moreover, the “Para. Est., TI3 vs MAPT_H14 (multivariable)” value in the series on MAPT (multivariable analysis best model, cycle 3, rs242557, TC = 1, CC/TT = 0, P-value 0.012) came out at 1.236. For the same molecule, the “Para. Est., TI1 vs MAPT_H14” value in the series with MAPT (univariate linear regression, cycle 1, rs242557, TC = 1, CC/TT = 0, P-value 0.016) is on record as 1.151. Further, the “Para. Est., TI3 vs MAPT_H14” value with MAPT (univariate linear regression, cycle 3, rs242557, TC = 1, CC/TT = 0, P-value 0.012) was 1.236.
In the case of `CC(=O)O[C@@]12CO[C@@H]1C[C@H](O)[C@@]1(C)C(=O)[C@H](O)C3=C(C)[C@@H](OC(=O)[C@H](O)[C@@H](NC(=O)OC(C)(C)C)c4ccccc4)C[C@@](O)([C@@H](OC(=O)c4ccccc4)[C@H]21)C3(C)C` (relative stereo) [Docetaxel, Benzenepropanoic acid, β-(((1,1-dimethylethoxy)carbonyl)amino)-α-hydroxy-, 12b-(acetyloxy)-12-(benzoyloxy)-2a,3,4,4a,5,6,9,10,11,12,12a,12b-dodecahydro-4,6,11-trihydroxy-4a,8,13,13-tetramethyl-5-oxo-7,11-methano-1H-cyclodeca(3,4)benz(1,2-b)oxet-9-yl ester trihydrate, (2aR-(2aα,4β,4aβ,6β,9(αR*,βS),11α,12α,12aα,12bα))-], the “Para. Est., TI5 vs CYP3A5_3A (multivariable)” value in the series with CYP3A5 (rs776746, AG = 1, GG/AA = 0, P-value 0.024) is recorded as −1.739. For the same molecule, in the series with CYP3A5 (univariate linear regression, cycle 4, rs15524, TC = 1, CC/TT = 0, P-value 0.045), the “Para. Est., TI4 vs CYP3A5_3A1” value is on record as −1.079. For the same molecule, the “Para. Est., TI4 vs CYP3A5_3A” value in the series on CYP3A5 (univariate linear regression, cycle 4, rs776746, AG = 1, GG/AA = 0, P-value 0.045) is given as −1.079. In the series on CYP3A5 (univariate linear regression, rs15524, TC = 1, CC/TT = 0, P-value 0.024), the “Para. Est., TI5 vs CYP3A5_3A1” value is −1.739. For the same molecule, the “Para. Est., TI5 vs CYP3A5_3A” value with CYP3A5 (univariate linear regression, rs776746, AG = 1, GG/AA = 0, P-value 0.024) is −1.739. Further, the “Fixed effect Estimate, Grade 2” value in series [1] (mixed model, longitudinal Toxicity Index in all cycles, Pr > |t| 0.0027) is −0.9840; in series [1] (mixed model, longitudinal Toxicity Index in first five cycles, Pr > |t| 0.0106), −1.0426. In addition, in series [1] (multivariable regression with MAPT_H13, cycle 3, Prostate Gland = 1, Others = 0, P-value 0.001), the “Para. Est., TI3 vs Site (multivariable)” value was 2.365. Also, in series [1] (univariate linear regression, cycle 3, Poorly Dif = 1, Others = 0, P-value 0.006), the “Para. Est., TI3 vs Grade” value was −1.609. Also, the “Para. Est., TI3 vs Site” value in series [1] (univariate linear regression, cycle 3, Prostate Gland = 1, Others = 0, P-value 0.046) is given as 1.962. Besides, the “Fixed effect Estimate, COL6_2 (MAPT_H1)” value was 1.1286 in the series on MAPT (mixed model, longitudinal Toxicity Index in all cycles, Pr > |t| 0.0029) and 1.1407 in the series on MAPT (mixed model, longitudinal Toxicity Index in first five cycles, Pr > |t| 0.0170). In the series with MAPT (multivariable analysis best model, cycle 4, rs17652121, TT = 1, CC/TC = 0, P-value 0.029), the “Para. Est., TI4 vs MAPT_H2 (multivariable)” value is listed as −0.900. For the same molecule, the “Para. Est., TI3 vs MAPT_H13 (multivariable)” value in the series with MAPT (multivariable regression with Site, cycle 3, rs3785883, GG = 1, AG = 0, P-value 0.003) worked out at 1.408. For the same molecule, the “Para. Est., TI3 vs MAPT_H1_H21” value in the series on MAPT (univariate linear regression, cycle 3, rs754512, AA = 1, TA/TT = 0, P-value 0.010) is recorded as −1.107. Also, the “Para. Est., TI3 vs MAPT_H1_H22” value in the series on MAPT (univariate linear regression, cycle 3, rs767058, AA = 1, AG/GG = 0, P-value 0.006) was −1.166. For the same molecule, the “Para. Est., TI3 vs MAPT_H1_H23” value in the series with MAPT (univariate linear regression, cycle 3, rs2055794, GG = 1, AA/AG = 0, P-value 0.010) was −1.107. For the same molecule, in the series on MAPT (univariate linear regression, cycle 3, rs3785883, GG = 1, AG = 0, P-value 0.013), the “Para. Est., TI3 vs MAPT_H13” value was −1.245. In addition, the “Para. Est., TI3 vs MAPT_H2” value with MAPT (univariate linear regression, cycle 3, rs17652121, TT = 1, CC/TC = 0, P-value 0.006) is −1.166. Besides, in the series on MAPT (univariate linear regression, cycle 4, rs754512, AA = 1, TA/TT = 0, P-value 0.023), the “Para. Est., TI4 vs MAPT_H1_H21” value is recorded as −0.953. Besides, the “Para. Est., TI4 vs MAPT_H1_H22” value in the series on MAPT (univariate linear regression, cycle 4, rs767058, AA = 1, AG/GG = 0, P-value 0.029) is −0.900. In addition, the “Para. Est., TI4 vs MAPT_H1_H23” value in the series with MAPT (univariate linear regression, cycle 4, rs2055794, GG = 1, AA/AG = 0, P-value 0.023) is −0.953. The “Para. Est., TI4 vs MAPT_H2” value in the series on MAPT (univariate linear regression, cycle 4, rs17652121, TT = 1, CC/TC = 0, P-value 0.029) is recorded as −0.900.

Source of the values: US20090186361A1, “METHODS OF PREDICTING THE PHARMACEUTICAL TOXICITY OF TAXANES” (priority 2008, published 2009).
